Experimental data as given in patent publication US4526989A, “1,4-Bis (substituted-amino)-5,8-dihydroxy-anthraquinones and leuco bases thereof” (priority 1979, dated 1985).

Assays:
[1] = system: Ridgway Osteogenic Sarcoma; assay: Ridgway Osteogenic Sarcoma; type: in vivo, AKD2 F1 /J mice; conditions: for % Inhibition Tumor Growth / % Showing 50% Tumor Regression / No. Without Tumors/No. Survivors / Tumor: 7 days after therapy stopped; for Median Survival / T/C: 63 days after therapy stopped
Experimental: The animals used are AKD2 F1 /J mice, all of the same sex, weighing a minimim of 17 g. and all within a three-gram weight range. There are normally 8 animals per test group. The tumor is administered subcutaneously by trocar as five 2-mm. fragments per mouse. The test compounds are administered intraperitoneally every 4 days for a total of 6 inoculations beginning on day 15 (relative to tumor inoculation) at various doses. The animals are weighed and survivors are recorded on a regular basis for 90 days. The regression of tumors is recorded in all test animals.

[2] = system: lymphocytic leukemia P388; assay: Lymphocytic leukemia P388 test (intraperitoneal administration); type: in vivo, DBA/2 mice; conditions: days 1, 5 and 9; for response vs control in vivo at 25 mg/kg / response vs control in vivo at 50 mg/kg / response vs control in vivo at 100 mg/kg / response vs control in vivo at 200 mg/kg / response vs control in vivo at 12 mg/kg: Mus musculus, P388, ip, read-out: T/C × 100; for response vs control in vivo at 25 mg/kg / response vs control in vivo at 50 mg/kg / response vs control in vivo at 100 mg/kg / response vs control in vivo at 200 mg/kg / response vs control in vivo at 12 mg/kg / T/C × 100: efficacy ≥125%
Summary of the method: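 DBA/2 mice, single sex, 5-6 per group, inoculated i.p. with 10^6 P388 leukemia cells. Compounds given i.p. at various doses on days 1, 5 and 9; survival followed 30 days, reporting median survival time and treated/control (T/C) survival ratio.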

melanotic melanoma B16 = assay: Melanotic Melanoma B16 test; type: in vivo, C57BC/6 mice; conditions: days 1 through 9; for response vs control in vivo at 6 mg/kg / response vs control in vivo at 12 mg/kg / response vs control in vivo at 25 mg/kg / response vs control in vivo at 50 mg/kg: Mus musculus, ip, read-out: T/C × 100; for response vs control in vivo at 6 mg/kg / response vs control in vivo at 12 mg/kg / response vs control in vivo at 25 mg/kg / response vs control in vivo at 50 mg/kg / T/C × 100: efficacy ≥125%
Summary of the method: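 C57BC/6 mice (10 per group) were implanted i.p. with B16 melanoma homogenate, then dosed i.p. on days 1–9 at various doses.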

Row | SMILES | Median Survival Time ([2]; 25 mg./kg. i.p.) [days] | Median Survival Time ([2]; 50 mg./kg. i.p.) [days] | Median Survival Time ([2]; 100 mg./kg. i.p.) [days] | response vs control in vivo at 25 mg/kg ([2]; 25 mg./kg. i.p.) [%] | response vs control in vivo at 50 mg/kg ([2]; 50 mg./kg. i.p.) [%] | response vs control in vivo at 100 mg/kg ([2]; 100 mg./kg. i.p.) [%] | Median Survival Time (melanotic melanoma B16; 6 mg./kg. i.p.) [days] | Median Survival Time (melanotic melanoma B16; 12 mg./kg. i.p.) [days] | Median Survival Time (melanotic melanoma B16; 25 mg./kg. i.p.) [days] | Median Survival Time (melanotic melanoma B16; 50 mg./kg. i.p.) [days] | response vs control in vivo at 6 mg/kg (melanotic melanoma B16; 6 mg./kg. i.p.) [%] | response vs control in vivo at 12 mg/kg (melanotic melanoma B16; 12 mg./kg. i.p.) [%] | response vs control in vivo at 25 mg/kg (melanotic melanoma B16; 25 mg./kg. i.p.) [%] | Median Survival Time ([2]; 12 mg./kg. i.p.) [days] | response vs control in vivo at 12 mg/kg ([2]; 12 mg./kg. i.p.) [%] | other results
1 | CC[C@]1(O)C[C@H]2CN(CCc3c([nH]c4ccccc34)[C@@](C(=O)OC)(c3cc4c(cc3OC)N(C=O)[C@H]3[C@@](O)(C(=O)OC)[C@H](OC(C)=O)[C@]5(CC)C=CCN6CC[C@]43[C@@H]65)C2)C1 [Vincristine] | – | – | – | – | – | – | – | – | – | – | – | – | – | – | – | % Inhibition Tumor Growth ([1]; 0.5 mg./kg. i.p.): 93%; % Showing 50% Tumor Regression ([1]; 0.5 mg./kg. i.p.): 57%; No. Without Tumors/No. Survivors ([1]; 0.5 mg./kg. i.p.): 4/7; Tumor ([1]; 0.5 mg./kg. i.p.): 77 (mm.) 2; Median Survival ([1]; 0.5 mg./kg. i.p.): 83 days; T/C ([1]; 0.5 mg./kg. i.p.): 186%; % Inhibition Tumor Growth ([1]; 1.0 mg./kg. i.p.): 100%; % Showing 50% Tumor Regression ([1]; 1.0 mg./kg. i.p.): 100%; No. Without Tumors/No. Survivors ([1]; 1.0 mg./kg. i.p.): 6/6; Tumor ([1]; 1.0 mg./kg. i.p.): 0 (mm.) 2; Median Survival ([1]; 1.0 mg./kg. i.p.): 85 days; T/C ([1]; 1.0 mg./kg. i.p.): 191%; % Inhibition Tumor Growth ([1]; 1.5 mg./kg. i.p.): 100%; % Showing 50% Tumor Regression ([1]; 1.5 mg./kg. i.p.): 100%; No. Without Tumors/No. Survivors ([1]; 1.5 mg./kg. i.p.): 4/4; Tumor ([1]; 1.5 mg./kg. i.p.): 0 (mm.) 2; Median Survival ([1]; 1.5 mg./kg. i.p.): 68 days; T/C ([1]; 1.5 mg./kg. i.p.): 153%
2 | CN(Cc1cnc2nc(N)nc(N)c2n1)c1ccc(C(=O)N[C@@H](CCC(=O)O)C(=O)O)cc1 [Methotrexate] | – | – | – | – | – | – | – | – | – | – | – | – | – | – | – | % Inhibition Tumor Growth ([1]; 6 mg./kg. i.p.): 36%; % Showing 50% Tumor Regression ([1]; 6 mg./kg. i.p.): 0%; No. Without Tumors/No. Survivors ([1]; 6 mg./kg. i.p.): 0/4; Tumor ([1]; 6 mg./kg. i.p.): 758 (mm.) 2; Median Survival ([1]; 6 mg./kg. i.p.): 46 days; % Inhibition Tumor Growth ([1]; 12 mg./kg. i.p.): 23%; % Showing 50% Tumor Regression ([1]; 12 mg./kg. i.p.): 0%; No. Without Tumors/No. Survivors ([1]; 12 mg./kg. i.p.): 0/5; Tumor ([1]; 12 mg./kg. i.p.): 916 (mm.) 2; Median Survival ([1]; 12 mg./kg. i.p.): 49 days; % Inhibition Tumor Growth ([1]; 25 mg./kg. i.p.): 54%; % Showing 50% Tumor Regression ([1]; 25 mg./kg. i.p.): 12%; No. Without Tumors/No. Survivors ([1]; 25 mg./kg. i.p.): 1/6; Tumor ([1]; 25 mg./kg. i.p.): 546 (mm.) 2; Median Survival ([1]; 25 mg./kg. i.p.): 52.5 days; T/C ([1]; 25 mg./kg. i.p.): 118%
3 | NCCNCCNc1ccc(NCCNCCN)c2c1C(=O)c1c(O)ccc(O)c1C2=O [1,4-Bis[2-(2-aminoethylamino)ethylamino]-5,8-dihydroxyanthraquinone] | 13.0 | 14.0 | 16.0 | 124 | 133 | 152 | 20.0 | 22.0 | 22.5 | 24.0 | 125 | 138 | 141 | – | – | Median Survival Time ([2]; 200 mg./kg. i.p.): 17.0 days; response vs control in vivo at 200 mg/kg ([2]; 200 mg./kg. i.p.): 162%; response vs control in vivo at 50 mg/kg (melanotic melanoma B16; 50 mg./kg. i.p.): 150%
4 | CN(C)CCCNc1ccc(NCCCN(C)C)c2c1C(=O)c1c(O)ccc(O)c1C2=O [1,4-Bis[(3-dimethylaminopropyl)amino]-5,8-dihydroxyanthraquinone] | 15.5 | 15.5 | – | 129 | 129 | – | – | – | 20.0 | – | – | – | 125 | 15.0 | 125 | –
5 | NCCCNC1=C2C(=O)c3c(O)ccc(O)c3C(=O)C2=C(NCCCN)CC1 [Leuco-1,4-bis(3-aminopropylamino)-5,8-dihydroxyanthraquinone] | 18.0 | 16.0 | 18.0 | 150 | 133 | 150 | 22.5 | 23.5 | 27.0 | 31.5 | 141 | 147 | 169 | 16.0 | 133 | Median Survival Time ([2]; 200 mg./kg. i.p.): 18.0 days; response vs control in vivo at 200 mg/kg ([2]; 200 mg./kg. i.p.): 150%; response vs control in vivo at 50 mg/kg (melanotic melanoma B16; 50 mg./kg. i.p.): 197%
6 | CC(C)NCCNC1=C2C(=O)c3c(O)ccc(O)c3C(=O)C2=C(NCCNC(C)C)CC1 [Leuco-1,4-bis[2-(2-isopropylamino)ethylamino]-5,8-dihydroxyanthraquinone] | 17.0 | 19.0 | 8.0 | – | – | – | 25.0 | 30.0 | 31.0 | 6.5 | – | – | – | – | – | Median Survival Time ([2]; 12.5 mg./kg. i.p.): 15.0 days; T/C × 100 ([2]; 12.5 mg./kg. i.p.): 136%; T/C × 100 ([2]; 25 mg./kg. i.p.): 155%; T/C × 100 ([2]; 50 mg./kg. i.p.): 173%; T/C × 100 ([2]; 100 mg./kg. i.p.): 73%; T/C × 100 (melanotic melanoma B16; 6 mg./kg. i.p.): 151%; T/C × 100 (melanotic melanoma B16; 12 mg./kg. i.p.): 182%; T/C × 100 (melanotic melanoma B16; 25 mg./kg. i.p.): 188%; T/C × 100 (melanotic melanoma B16; 50 mg./kg. i.p.): 39%
7 | O=C1c2c(O)ccc(O)c2C(=O)c2c(NCCN3CCCC3)ccc(NCCN3CCCC3)c21 [1,4-Bis[2-(1-pyrrolidinyl)ethylamino]-5,8-dihydroxyanthraquinone] | 21.0 | 23.0 | 24.0 | 191 | 209 | 218 | 22.0 | 22.0 | 24.5 | – | 137 | 137 | 153 | 18.0 | 164 | –
